Data reported in ChEMBL document CHEMBL2151005, “Discovery of 1H-pyrrolo[2,3-c]pyridine-7-carboxamides as novel, allosteric mGluR5 antagonists” (Bioorg Med Chem Lett, 2012).

Tests used:
[1] = physchem
[2] = physchem; settings: octanol/water

| SMILES | pKa [1] | logP [2] |
| --- | --- | --- |
| Cc1cc2cc[nH]c2c(C(=O)Nc2ccccn2)n1 | 3.5 | 4.2 |
| Cc1cc2cc[nH]c2c(C(=O)Nc2ccn(C)n2)n1 | 4.1 | 2.9 |
| Cc1cccc(NC(=O)c2nc(C)cc3c(-c4ccccn4)c[nH]c23)n1 | 4.5 | 4.7 |
| Cc1cc2c(-c3ccccn3)c[nH]c2c(C(=O)Nc2ccn(C)n2)n1 | 4.6 | 3.7 |
| Cc1c[nH]c(NC(=O)c2nc(C)cc3c(-c4ccccn4)c[nH]c23)n1 | 6.9 | 3.3 |

Results, then the compound that gave them:

| pKa [1] | logP [2] | SMILES |
| --- | --- | --- |
| 4.5 | 5.3 | Cc1cccc(NC(=O)c2nc(C)cc3cc[nH]c23)n1 |
| 5.6 | 3.9 | Cc1csc(NC(=O)c2nc(C)cc3cc[nH]c23)n1 |
| 7.6 | 3.1 | Cc1c[nH]c(NC(=O)c2nc(C)cc3cc[nH]c23)n1 |
